Measured values taken from ChEMBL document CHEMBL1129890, “Synthesis and evaluation of dual action cephalosporins as elastase inhibitors” (Bioorg Med Chem Lett, 1997).

Experiments:
[1] = Steady state velocity of inhibitor concentration required to inhibit porcine pancreatic elastase was determined by using Lineweaver-Burke Plot; design: species or system Sus scrofa
[2] = Hydrolytic stability was expressed as t1/2; assay type: physicochemical
[3] = Steady state velocity of inhibitor concentration required to inhibit porcine pancreatic elastase was determined by using Dixon Plot; design: species or system Sus scrofa

IC50 [1]	half-life [2]	IC50 [3]	Structure (SMILES)
0.11 µM	19 h	–	CO[C@H]1C(=O)N2C(C(=O)OC(C)(C)C)=C(COC(=O)c3ccccc3OC(C)=O)CS(=O)(=O)C12 (some centres undefined)
0.25 µM	2.3 h	0.35 µM	CC(=O)Oc1ccccc1C(=O)OCC1=C(C(=O)OC(C)(C)C)N2C(=O)[C@H](Cl)C2S(=O)(=O)C1 (some centres undefined)
35 µM	–	11 µM	CC1=C(C(=O)OC(C)(C)C)N2C(=O)[C@H](Cl)C2S(=O)(=O)C1 (some centres undefined)
73 µM	–	11 µM	CO[C@H]1C(=O)N2C(C(=O)OC(C)(C)C)=C(C)CS(=O)(=O)C12 (some centres undefined)
0.11 µM	60 h	–	CO[C@H]1C(=O)N2C(C(=O)OC(C)(C)C)=C(COC(=O)Cc3ccccc3Nc3c(Cl)cccc3Cl)CS(=O)(=O)C12 (some centres undefined)
0.18 µM	73 h	0.68 µM	CC(C)(C)OC(=O)C1=C(COC(=O)Cc2ccccc2Nc2c(Cl)cccc2Cl)CS(=O)(=O)C2[C@@H](Cl)C(=O)N12 (some centres undefined)
